Laboratory results from the supplement of paper PMC6045584.
± gives the standard deviation of the averaged measurements.

Columns and labels:
[1] = compound: CN1CC[C@H](c2c(O)cc(O)c3c(=O)cc(-c4ccccc4Cl)oc23)[C@H](O)C1 [FLAVOPIRIDOL]; test: area under dose-response curve of surviving fraction (unscaled, Aref=0) (surviving fraction x log10(nM)); higher = more resistant; conditions: exposure time: 5 days; dose range 0.5-1000 nM
In short: (§1)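 Three screens per tumour cell line were run in 384-well plates at eight inhibitor concentrations from 0.5 to 1000 nM over five days. Surviving fractions, from CellTiter-Glo luminescence normalised to DMSO-only wells, were fitted with 3-parameter logistic curves in the drc R package. The reported area under the curve is the unscaled activity area. It spans log10 dose, and Aref is 0.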

[2] = compound: Nc1ncn([C@H]2C[C@H](O)[C@@H](CO)O2)c(=O)n1 [DECITABINE]; test: as above; conditions: exposure time: 5 days; dose range 0.5-1000 nM
In short: as §1

[3] = compound: CS(=O)(=O)CCNCc1ccc(-c2ccc3ncnc(Nc4ccc(OCc5cccc(F)c5)c(Cl)c4)c3c2)o1 [LAPATINIB]; test: as above; conditions: exposure time: 5 days; dose range 0.5-1000 nM
In short: as §1

[4] = compound: COc1cc2c(cc1O)CC[C@@H]1[C@@H]2CC[C@]2(C)[C@@H](O)CC[C@@H]12 [2-METHOXYESTRADIOL]; test: as above; conditions: exposure time: 5 days; dose range 0.5-1000 nM
In short: as §1

[5] = compound: Oc1ccc(/C=C/c2cc(O)cc(O)c2)cc1 [RESVERATROL]; test: as above; conditions: exposure time: 5 days; dose range 0.5-1000 nM
In short: as §1

[6] = compound: CN(C)CC[C@H](CSc1ccccc1)Nc1ccc(S(=O)(=O)NC(=O)c2ccc(N3CCN(Cc4ccccc4-c4ccc(Cl)cc4)CC3)cc2)cc1[N+](=O)[O-] [ABT-737]; test: as above; conditions: exposure time: 5 days; dose range 0.5-1000 nM
In short: as §1

[7] = compound: COc1cccc2c1C(=O)c1c(O)c3c(c(O)c1C2=O)C[C@@](O)(C(=O)CO)C[C@@H]3O[C@H]1C[C@H](N)[C@H](O)[C@H](C)O1 [DOXORUBICIN]; test: surviving fraction relative to DMSO-only wells; higher = less growth inhibition; conditions: exposure time: 5 days
In short: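 Log-phase tumour cell lines, 250–500 cells per well in 384-well plates, received inhibitors at 0.5, 1, 5, 10, 50, 100, 500 and 1000 nM continuously for five days, starting 24 hours after seeding. Viability was quantified with CellTiter-Glo luminescence and normalised to the median of DMSO-only wells to give surviving fraction. Three screens were run per line, and a line stayed in only with replicate Pearson r >0.7 and median Z' >0.3.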

| Test System | area under dose-response curve [1] | area under dose-response curve [2] | area under dose-response curve [3] | area under dose-response curve [4] | area under dose-response curve [5] | area under dose-response curve [6] | surviving fraction ([7]; 0.5 nM) | surviving fraction ([7]; 1 nM) | surviving fraction ([7]; 5 nM) | surviving fraction ([7]; 10 nM) | surviving fraction ([7]; 50 nM) | surviving fraction ([7]; 100 nM) | surviving fraction ([7]; 500 nM) | surviving fraction ([7]; 1000 nM) |
| --- | --- | --- | --- | --- | --- | --- | --- | --- | --- | --- | --- | --- | --- | --- |
| CCK81 LARGE INTESTINE | 1.69 | 1.69 | 1.95 | 2.32 | 2.47 | 2.64 |  |  |  |  |  |  |  |  |
| G292 BONE | 2.14 | 2.61 | 3.3 | 2.87 | 3.42 | 3.45 | 1.03 ± 0.065 | 1 ± 0.037 | 0.816 ± 0.052 | 0.601 ± 0.059 | 0.388 ± 0.031 | 0.338 ± 0.0043 | 0.108 ± 0.006 | 0.0887 ± 0.0033 |
| HCC38 BREAST | 2.36 | 2.64 | 3 |  |  |  | 1.23 ± 0.28 | 1.19 ± 0.18 | 1.1 ± 0.23 | 0.759 ± 0.14 | 0.301 ± 0.034 | 0.0897 ± 0.0085 | 0.0433 ± 0.0025 | 0.044 ± 0.0079 |
| HCC70 BREAST | 2.16 |  | 3.58 | 3.06 | 3.59 | 3.49 | 0.966 ± 0.06 | 0.939 ± 0.021 | 0.986 ± 0.15 | 0.9 ± 0.13 | 0.33 ± 0.013 | 0.489 ± 0.045 | 0.15 ± 0.022 | 0.0553 ± 0.017 |
| HMLE3 BREAST | 2.14 | 2.98 |  | 3.23 | 3.42 | 3.75 | 0.941 ± 0.088 | 1.04 ± 0.046 | 0.744 ± 0.081 | 0.405 ± 0.0065 | 0.231 ± 0.022 | 0.069 ± 0.018 | 0.02 ± 0.001 | 0.0223 ± 0.00058 |
| HMT3552 BREAST | 1.86 | 3.71 | 3.24 | 2.95 | 3.64 | 3.5 | 1.09 | 0.911 | 0.949 | 0.817 | 0.154 | 0.167 | 0.099 | 0.027 |
| HS57T BREAST |  |  |  |  |  |  | 0.98 ± 0.066 | 0.906 ± 0.1 | 0.478 ± 0.09 | 0.318 ± 0.015 | 0.353 ± 0.045 | 0.124 ± 0.015 | 0.0277 ± 0.0011 | 0.0273 ± 0.0011 |
| HS578T BREAST | 2.13 | 2.99 | 3.34 | 2.71 | 3.82 | 3.8 | 0.922 ± 0.097 | 0.958 ± 0.092 | 0.838 ± 0.1 | 0.693 ± 0.013 | 0.483 ± 0.046 | 0.489 ± 0.066 | 0.094 ± 0.02 | 0.037 ± 0.0079 |
